Publication PMC12567398, “New Assay Systems to Characterize the Broad-Spectrum Antiherpesviral and Non-Herpesviral Activity of Cyclin-Dependent Kinase (CDK) 8 Inhibitors” (Pharmaceuticals, 2025)
Like-named read-outs stand apart in the source and are kept apart here.

Legend:
Caco-2 cells = assay: Neutral Red uptake cell viability assay, Caco-2; conditions: read-out: mean CC50; Caco-2 (Fig 7D)
SARS-CoV-2 d6-YFP [1] = test system: SARS-CoV-2 d6-YFP
vaccinia virus VV IHD-5 = assay: microbe, parasite or virus in culture; type: cell-based; conditions: Orthopoxvirus vaccinia, read-out: antiviral EC50, VV
JCPyV = test system: JCPyV; set-up: method as in ref 35, 38 (a number printed in a supplementary file, which may have a reference list of its own: not looked up in the article's list); conditions: Table S1; read-out: antiviral EC50, JCPyV; cited from earlier work
ChCMV = test system: ChCMV; set-up: method as in ref 35, 38 (a number printed in a supplementary file, which may have a reference list of its own: not looked up in the article's list); conditions: Table S1; read-out: antiviral EC50, ChCMV; cited from earlier work
EHV-1-GFP = EHV-1-GFP antiviral assay, GFP fluorometry; type: cell-based, equine herpesvirus 1; conditions: COS-7
[2] = test system: Epstein–Barr virus P3HR-1; assay: EBV lytic assay in TPA-induced P3HR-1 cells, qPCR; type: cell-based; conditions: human gammaherpesvirus 4, P3HR-1; Table S1; read-out: antiviral EC50, EBV
HAdV = test system: HAdV; set-up: method as in ref 35, 38 (a number printed in a supplementary file, which may have a reference list of its own: not looked up in the article's list); conditions: Table S1; read-out: antiviral EC50, HAdV; cited from earlier work
[3] = Neutral Red uptake cell viability assay, Caco-2; conditions: human
EHV-1 = assay: EHV-1-specific qPCR of virus release into culture medium; type: cell-based, equine herpesvirus 1
[4] = Neutral Red uptake cell viability assay, COS-7; conditions: African green monkey
RhCMV = test system: RhCMV; set-up: method as in ref 35, 38 (a number printed in a supplementary file, which may have a reference list of its own: not looked up in the article's list); conditions: Table S1; read-out: antiviral EC50, RhCMV; cited from earlier work
HHV-6A-GFP = assay: HHV-6A plaque reduction assay in HFFs; conditions: Human betaherpesvirus 6A
[5] = Neutral Red uptake / Alamar Blue cell viability assay, 293T; conditions: human
MHV-68-Luc = MHV-68-Luc luciferase reporter assay; type: cell-based, murine herpesvirus 68; conditions: Murine herpesvirus
HSV-1 = test system: HSV-1; set-up: method as in ref 35, 38 (a number printed in a supplementary file, which may have a reference list of its own: not looked up in the article's list); conditions: Table S1; read-out: antiviral EC50, HSV-1; cited from earlier work
[6] = Neutral Red uptake cell viability assay, Vero; conditions: African green monkey, CC50, Vero (Fig 4F)
HHV-6A = test system: HHV-6A; set-up: method as in ref 35 (a number printed in a supplementary file, which may have a reference list of its own: not looked up in the article's list); conditions: Table S1; J-Jhan cells; read-out: antiviral EC50, HHV-6A (J-Jhan); cited from earlier work
SARS-CoV-2 d6-YFP [7] = assay: microbe, parasite or virus in culture
VZV = test system: VZV; set-up: method as in ref 35, 38 (a number printed in a supplementary file, which may have a reference list of its own: not looked up in the article's list); conditions: Table S1; read-out: antiviral EC50, VZV; cited from earlier work
KSHV = test system: KSHV; set-up: method as in ref 35, 38 (a number printed in a supplementary file, which may have a reference list of its own: not looked up in the article's list); conditions: Table S1; read-out: antiviral EC50, KSHV; cited from earlier work
RCMV = test system: RCMV; set-up: method as in ref 35, 38 (a number printed in a supplementary file, which may have a reference list of its own: not looked up in the article's list); conditions: Table S1; read-out: antiviral EC50, RCMV; cited from earlier work
[8] = Neutral Red uptake cell viability assay, HFF; conditions: human
[9] = Neutral Red uptake cell viability assay, MEF; conditions: mouse
HCMV = test system: HCMV; set-up: method as in ref 35, 38 (a number printed in a supplementary file, which may have a reference list of its own: not looked up in the article's list); conditions: Table S1; read-out: antiviral EC50, HCMV; cited from earlier work
MCMV = test system: MCMV; set-up: method as in ref 35, 38 (a number printed in a supplementary file, which may have a reference list of its own: not looked up in the article's list); conditions: Table S1; read-out: antiviral EC50, MCMV; cited from earlier work
in vitro = conditions: human

Question: With O=c1nc(NO)ccn1[C@@H]1O[C@H](CO)[C@@H](O)[C@H]1O [EIDD-1931] as the molecule, how does the CC50 (Caco-2 cells) read?
Answer: The CC50 was greater than 100000 nM.

Question: And the EC50 (SARS-CoV-2 d6-YFP [1]; read-out: Antiviral mean EC50 based on YFP measurements, SARS-CoV-2 d6-YFP, Caco-2, […])?
Answer: Its EC50 is 4100 ± 1400 nM.

Question: With CN(C)C(=O)Cn1cc(-c2ccc(-c3cncc4ccccc34)cc2)cn1 [BI-1347] as the molecule, how does the EC50 (vaccinia virus VV IHD-5) read?
Answer: Its EC50 is greater than 50000 nM.

Question: And the EC50 (JCPyV)?
Answer: The EC50 was 700 ± 1600 nM.

Question: And the EC50 (ChCMV)?
Answer: The EC50 was 10 ± 20 nM.

Question: What about the EC50 (EHV-1-GFP) of the same molecule?
Answer: Its EC50 is 80 nM.

Question: What about the EC50 [2] of the same molecule?
Answer: Its EC50 is 5500 ± 4200 nM.

Question: And the EC50 (HAdV)?
Answer: The EC50 was 50 ± 100 nM.

Question: What about the CC50 at 3 d [3] of the same molecule?
Answer: The CC50 at 3 d was greater than 100000 nM.

Question: And the EC50 (EHV-1; EHV-1, qPCR / COS-7, read-out: EC50)?
Answer: The EC50 was less than 3 nM.

Question: What about the EC50 (EHV-1; Equus caballus) of the same molecule?
Answer: The EC50 was 20 ± 50 nM.

Question: What about the EC50 (EHV-1; Equus caballus, read-out: antiviral EC50, EHV-1 (HFF)) of the same molecule?
Answer: The EC50 was 30 ± 30 nM.

Question: And the CC50 at 4 d ([4]; CC50, COS-7 (Fig 4F))?
Answer: Its CC50 at 4 d is greater than 100000 nM.

Question: What about the CC50 at 4 d ([4]; CC50, COS-7, listed with GFP / COS-7 (Fig 1E)) of the same molecule?
Answer: The CC50 at 4 d was greater than 50000 nM.

Question: What about the CC50 at 4 d ([4]; CC50, COS-7, listed with qPCR / COS-7 (Fig 1E)) of the same molecule?
Answer: The CC50 at 4 d was greater than 50000 nM.

Question: What about the EC50 (RhCMV) of the same molecule?
Answer: Its EC50 is 0.4 ± 0.5 nM.

Question: What about the EC50 (HHV-6A-GFP; read-out: Antiviral mean EC50 based on plaque assay measurements) of the same molecule?
Answer: The EC50 was 200 ± 200 nM.

Question: And the EC50 (HHV-6A-GFP; read-out: antiviral EC50, HHV-6A (HFF))?
Answer: Its EC50 is 300 ± 200 nM.

Question: And the CC50 at 2 d [5]?
Answer: Its CC50 at 2 d is 93000 ± 5000 nM.

Question: And the “CDK8 inhibitor sensitivity of SARS-CoV-2 in Caco-2 cells” value (SARS-CoV-2 d6-YFP [1]; in words)?
Answer: The value was “low level of sensitivity”.

Question: What about the EC50 (MHV-68-Luc; COS-7, read-out: antiviral EC50, MHV-68 (COS-7), Table S1, COS-7) of the same molecule?
Answer: Its EC50 is 0.1 ± 0.1 nM.

Question: What about the EC50 (MHV-68-Luc; Vero, read-out: antiviral EC50, MHV-68 (Vero), Table S1, Vero) of the same molecule?
Answer: The EC50 was 0.5 ± 0.03 nM.

Question: What about the EC50 (MHV-68-Luc; read-out: antiviral EC50, MHV-68 (HFF), Table S1, HFF) of the same molecule?
Answer: Its EC50 is 40 ± 20 nM.

Question: What about the EC50 (MHV-68-Luc; read-out: antiviral EC50, MHV-68 (MEF), Table S1, MEF) of the same molecule?
Answer: The EC50 was 6 ± 2 nM.

Question: What about the EC50 (HSV-1) of the same molecule?
Answer: The EC50 was greater than 50000 nM.

Question: And the CC50 at 7 d [6]?
Answer: Its CC50 at 7 d is greater than 100000 nM.

Question: What about the EC50 (HHV-6A) of the same molecule?
Answer: Its EC50 is greater than 50000 nM.

Question: What about the EC50 (SARS-CoV-2 d6-YFP [7]; Severe acute respiratory syndrome coronavirus 2, Caco-2, 30 h, read-out: Antiviral mean EC50 based on YFP measurements) of the same molecule?
Answer: The EC50 was no less than 15400 nM.

Question: And the EC50 (SARS-CoV-2 d6-YFP [7]; Severe acute respiratory syndrome coronavirus 2, Caco-2, read-out: antiviral EC50, SARS-CoV-2)?
Answer: The EC50 was 22800 ± 3200 nM.

Question: And the EC50 (VZV)?
Answer: Its EC50 is 26000 ± 10000 nM.

Question: And the EC50 (KSHV)?
Answer: The EC50 was 300 ± 600 nM.

Question: What about the EC50 (RCMV) of the same molecule?
Answer: Its EC50 is 2 ± 4 nM.

Question: What about the CC50 ([8]; CC50, HFF, listed with qPCR / HFF (Fig 1E)) of the same molecule?
Answer: The CC50 was greater than 50000 nM.

Question: What about the CC50 ([8]; mean CC50, HFF, HHV-6A assay conditions (Fig 2D)) of the same molecule?
Answer: Its CC50 is greater than 100000 nM.

Question: And the CC50 at 7 d [9]?
Answer: Its CC50 at 7 d is greater than 100000 nM.

Question: What about the EC50 (HCMV) of the same molecule?
Answer: The EC50 was 0.9 ± 0.7 nM.

Question: What about the EC50 (MCMV) of the same molecule?
Answer: The EC50 was 20 ± 10 nM.

Question: And the CC50 (in vitro)?
Answer: Its CC50 is greater than 100000 nM.
